Results from PMC12527977, “Discovery of a novel tetrapeptide as glucose homeostasis modulator with bifunctionalities of targeting DPP‐IV and microbiota” (iMeta, 2025).
Where “and” joins values, the source holds several entries; their conditions need not be identical. Equal entries are not always repeated. Structures can show the parent of a compound that is named as a salt. Where two headings read alike, the source gives them in different places. Where a SMILES comes first, the peptide text is derived from it.

Legend:
DPP-IV [1] = biological target: T1, DPP-IV (Homo sapiens, UniProt P27487); assay: Surface plasmon resonance (Biacore 8K, CM5 chip, 25 °C); format: binding; set-up: purchased QiZheng Biotech (Shanghai, China) IBDPP0901; conditions: SPR, Table S3; read-out: KD values
DPP-IV [2] = biological target: T1, DPP-IV; assay: DPP-IV inhibitory activity of peptides (DPP-IV-Glo Protease Assay Kit); format: biochemical; set-up: purchased QiZheng Biotech (Shanghai, China) IBDPP0901; conditions: for DPP-IV inhibitory activity: DPP-IV-Glo Protease Assay Kit, control = 0, sheet S2F, in % (unit assumed); for IC50: read-out: IC50
Target sequence in this assay (P27487 whole entry): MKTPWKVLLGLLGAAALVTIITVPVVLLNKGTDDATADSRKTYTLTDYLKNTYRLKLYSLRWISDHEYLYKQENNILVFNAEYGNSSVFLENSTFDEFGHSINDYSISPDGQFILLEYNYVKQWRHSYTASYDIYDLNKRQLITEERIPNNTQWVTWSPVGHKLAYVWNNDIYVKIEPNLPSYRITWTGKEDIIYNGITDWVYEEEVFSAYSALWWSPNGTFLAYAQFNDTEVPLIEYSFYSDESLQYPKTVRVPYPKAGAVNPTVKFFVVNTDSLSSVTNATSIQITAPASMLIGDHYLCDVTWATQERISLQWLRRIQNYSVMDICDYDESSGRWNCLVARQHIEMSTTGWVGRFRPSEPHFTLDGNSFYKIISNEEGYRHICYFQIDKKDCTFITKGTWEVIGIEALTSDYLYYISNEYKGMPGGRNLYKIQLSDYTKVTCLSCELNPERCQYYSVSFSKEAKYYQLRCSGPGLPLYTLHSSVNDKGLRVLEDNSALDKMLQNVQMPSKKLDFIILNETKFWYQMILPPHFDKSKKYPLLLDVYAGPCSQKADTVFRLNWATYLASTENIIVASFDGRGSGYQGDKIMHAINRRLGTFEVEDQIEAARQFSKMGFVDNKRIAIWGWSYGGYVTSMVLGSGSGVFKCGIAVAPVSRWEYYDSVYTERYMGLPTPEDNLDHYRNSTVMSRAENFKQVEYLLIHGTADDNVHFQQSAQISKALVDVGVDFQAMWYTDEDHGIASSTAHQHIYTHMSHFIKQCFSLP

[3] = Simulated digestive stability of peptides (pepsase then trypsase); format: in vitro ADME, porcine; conditions: pig, relative to basal 100, sheet S2H; for remaining at 4 h, 5 mg/mL: pH 7, simulated digestion, after pepsase then trypsase, read-out: Peptide remaining, Trypsase; for remaining at 2 h, 5 mg/mL: porcine pepsase (simulated gastric digestion), pH 3, simulated digestion, after porcine pepsase, read-out: Peptide remaining, Pepsase
Experimental: (§1) The in vitro digestibility of the peptides was determined according to the method described by Ohanenye et al. with some modifications. Briefly, 5.0 mg/mL peptides were mixed with 5000 U/mL porcine pepsase (pH 3.0). The mixture was incubated with continuous shaking in a water bath at 37 ℃ for 2 h. Then, the mixture was adjusted to pH 7.0, and a final concentration of 100 U/mL trypsase was added, followed by continuous shaking at 37 ℃ for another 2 h. After digestion, the enzyme was inactivated, and the mixture was incubated in a water bath (100 ℃) for 20 min. Subsequently, the mixture was centrifuged at 6000 rpm for 20 min, after which the supernatants were collected for further analysis. The concentrations of peptides in the digestions and TPH were determined via AB SCIEX QTrap 6600+ (AB Sciex, Framingham, Massachusetts).

HFD-fed C57BL/6J mice [4] = assay: HFD-fed mice, TPH/sitagliptin/HSP 8 weeks: FBG, OGTT, fasting insulin, HOMA-IR; format: in vivo, mouse; set-up: unit not given here; conditions: 8 weeks p.o. (Sit 12.5, TPH 80, HSP 320 mg/kg)
Experimental: (§2) To evaluate the hypoglycaemic activity of TPH, all mice were fed a high-fat diet (HFD, Research Diets, cat# D12492).
Oral glucose tolerance tests (OGTTs) were conducted following a 6-hour fasting period in mice. Blood glucose levels were assessed using a glucometer on tail vein blood samples at 0, 15, 30, 60, and 90 min after oral glucose administration with a dosage of 1.5 g/kg body weight. For insulin tolerance tests (ITTs), mice were intraperitoneal injected with insulin (0.8 U/kg body weight) after 6 h of fasting. […] The levels of active GLP-1, total GLP-1, and insulin were measured using the corresponding kits and normalized to the protein concentration (via a BCA protein assay).

[5] = test system: gut microbiota, A. muciniphila; assay: HFD-fed mice, TPH or sitagliptin 8 weeks: gut microbiota (16S rRNA); format: in vivo, mouse; conditions: in words, 8 weeks p.o.
From the text: To evaluate the hypoglycaemic activity of TPH, all mice were fed a high-fat diet (HFD, Research Diets, cat# D12492). […] Raw sequencing data were processed with QIIME2. In brief, the forward and reverse reads each were truncated at 200 bases. Taxonomy was assigned using the Greengenes reference (version 13.8) database. Analyses of alpha diversity (one-way ANOVA followed by Tukey’s post hoc test), beta diversity (weighted UniFrac distance followed by ANOSIM test), and bacterial taxonomic distributions were performed using MicrobiomeAnalyst.

HFD-fed C57BL/6J mice [6] = assay: HFD-fed mice, TPH/sitagliptin/HSP 8 weeks: plasma NEFA, TG, TC, HDL-c, LDL-c; format: in vivo, mouse; conditions: individual animals, n = 6, sheet S1U, listed as Sit
Experimental: as §2
The levels of plasma total cholesterol (TC), triacylglycerol (TG), high-density lipoprotein cholesterol (HDL-c), low-density lipoprotein cholesterol (LDL-c), nonesterified fatty acid (NEFA), tumour necrosis factor α (TNF α), and interleukin-1β (IL-1β) were determined by commercial kit (Nanjing Jiancheng Bioengineering Institute, Nanjing, China).

[7] = test system: porcine pepsase and trypsase; assay: Simulated digestive stability of peptides (pepsase then trypsase); format: in vitro ADME; conditions: in words; 5.0 mg/mL peptide, pepsase 5000 U/mL pH 3.0 37 °C 2 h, then trypsase 100 U/mL pH 7.0 37 °C 2 h, LC-MS
Experimental: as §1

A. muciniphila [8] = assay: Effect of different drugs (50 μM) on the growth of A. muciniphila; format: cell-based, Akkermansia muciniphila; conditions: in words; drugs at 50 μM
A. muciniphila [9] = assay: HFD-fed mice, VAMP and/or benzydamine 4 weeks: A. muciniphila abundance in faeces (qPCR); format: in vivo, mouse; conditions: in words, 50 mg/kg three times per week for 4 weeks

Compound | Kd (DPP-IV [1]) [µM] | DPP-IV inhibitory activity (DPP-IV [2]; replicate 1) | DPP-IV inhibitory activity (DPP-IV [2]; replicate 2) | DPP-IV inhibitory activity (DPP-IV [2]; replicate 3) | IC50 (DPP-IV [2]; Table S3) [µM] | remaining at 4 h, 5 mg/mL ([3]; replicate 1) [%] | remaining at 4 h, 5 mg/mL ([3]; replicate 2) [%] | remaining at 4 h, 5 mg/mL ([3]; replicate 3) [%] | remaining at 2 h, 5 mg/mL ([3]; replicate 1) [%] | remaining at 2 h, 5 mg/mL ([3]; replicate 2) [%] | remaining at 2 h, 5 mg/mL ([3]; replicate 3) [%] | other results
C[C@H](NC(=O)[C@H](Cc1ccc(O)cc1)NC(=O)[C@H](CO)NC(=O)[C@@H](N)Cc1ccc(O)cc1)C(=O)O [YSYA] (H-YSYA-OH) | 5.54 | 27.0679 | 29.9267 | 30.8304 | 410 | 3.01 | 3.24 | 4.18 | 17.8 | 17.7 | 15.2 | –
N[C@@H](CC(=O)N1CCn2c(nnc2C(F)(F)F)C1)Cc1cc(F)c(F)cc1F [Sitagliptin] | – | – | – | – | – | – | – | – | – | – | – | AUC of the OGTT (HFD-fed C57BL/6J mice [4]; mouse 1 of group): 27513; Levels of fasting insulin (HFD-fed C57BL/6J mice [4]; mouse 1 of group): 31.21; AUC of the OGTT (HFD-fed C57BL/6J mice [4]; mouse 2 of group): 22668; Levels of fasting insulin (HFD-fed C57BL/6J mice [4]; mouse 2 of group): 34.42; AUC of the OGTT (HFD-fed C57BL/6J mice [4]; mouse 3 of group): 23854.5; Levels of fasting insulin (HFD-fed C57BL/6J mice [4]; mouse 3 of group): 37.914; AUC of the OGTT (HFD-fed C57BL/6J mice [4]; mouse 4 of group): 21897; Levels of fasting insulin (HFD-fed C57BL/6J mice [4]; mouse 4 of group): 32.691; AUC of the OGTT (HFD-fed C57BL/6J mice [4]; mouse 5 of group): 22426.5; Levels of fasting insulin (HFD-fed C57BL/6J mice [4]; mouse 5 of group): 36.21; AUC of the OGTT (HFD-fed C57BL/6J mice [4]; mouse 6 of group): 19386; Levels of fasting insulin (HFD-fed C57BL/6J mice [4]; mouse 6 of group): 32.691; Abundance of A. muciniphila in the intestine [5]: no effect; Plasma HDL-c (HFD-fed C57BL/6J mice [6]): 2.289 and 2.058 and 2.182 and 2.361 and 2.149
CC(C)C[C@H](NC(=O)[C@@H](N)CC(C)C)C(=O)N[C@@H](Cc1ccc(O)cc1)C(=O)O [LLY] (H-Leu-Leu-Tyr-OH) | 5.23 | 32.8224 | 33.3933 | 36.9146 | 830 | 0.95 | 0.78 | 0.81 | 1.24 | 0.79 | 0.98 | –
CC(C)[C@H](N)C(=O)N[C@@H](C)C(=O)N[C@@H](CC(=O)O)C(=O)N[C@@H](Cc1c[nH]c2ccccc12)C(=O)O [VADW] (H-VADW-OH) | 14 | 63.2506 | 57.5085 | 57.0946 | 350 | 9.2 | 9.52 | 7.78 | 12.2 | 14.3 | 10.4 | –
NC(=O)CC[C@H](NC(=O)[C@@H]1CCCN1C(=O)[C@@H](N)Cc1ccccc1)C(=O)N[C@@H](CO)C(=O)O [FPQS] (H-FPQS-OH) | – | 35.1258 | 29.3845 | 34.8747 | 350 | 85.1 | 83.4 | 87.9 | 94.6 | 92.4 | 92.7 | IC50 (DPP-IV [2]; source data of heatmap Fig 1J): 80 µM; Resistance to simulated gastric pepsase and trypsase digestion [7]: readily resistant
CN(C)CCCOc1nn(Cc2ccccc2)c2ccccc12 [benzydamine, benzydamine hydrochloride] | – | – | – | – | – | – | – | – | – | – | – | Growth of A. muciniphila (A. muciniphila [8]): specifically inhibit the growth of A. muciniphila; Abundance of A. muciniphila in faeces (A. muciniphila [9]): reduced the abundance of A. muciniphila to an extremely low level
CSCC[C@H](NC(=O)[C@H](CC(C)C)NC(=O)[C@H](CCC(N)=O)NC(=O)[C@@H](N)Cc1ccc(O)cc1)C(=O)O [YQLM] (H-YQLM-OH) | 25.4 | 41.3327 | 38.0136 | 34.538 | 650 | 14.3 | 12.7 | 9.83 | – | 14.7 | 15 | –
CC(C)C[C@H](NC(=O)[C@H](CC(N)=O)NC(=O)[C@@H](N)Cc1ccc(O)cc1)C(=O)N1CCC[C@H]1C(=O)O [YNLP] (H-YNLP-OH) | 100 | 22.415 | 17.2115 | 22.0674 | 510 | 98.7 | 99 | 100 | 97.5 | 99.8 | 100 | Resistance to simulated gastric pepsase and trypsase digestion [7]: readily resistant
